{
  "source": "patent US9669016B2",
  "about": "“Antiparasitic effect of Bis[3,5-Bis(Benzylidene)-4-Oxo-1-Piperidinyl]amide Derivatives” (priority 2014, dated 2017)",
  "key": {"[1]": {"tested_on": "L. major promastigotes", "test": "Mitoprobe JC-1 mitochondrial membrane potential assay", "format": "cell-based, Leishmania major", "settings": "three concentrations, four hours", "experimental": "L. major promastigotes and intraperitoneal macrophages from BALB/c mice were treated with each compound at three concentrations for four hours. Then, cells were stained with 2 μM of the fluorophore 5,5′,6,6′-tetrachloro-1,1′,3,3′-tetraethylbenzimidazolylcarboncyanine iodide (JC-1) following a modified version of manufacturer's instruction (Life Technologies, Grand Island, N.Y.). The disruption of mitochondrial Δψm is evidenced by an appreciable shift of the fluorescence signal from red to green. JC-1 aggregates or monomers, emitting red or green signal, were identified via flow cytometer (Cytomics Fc500) by using FL-2 or FL-1 detectors, respectively. A proton ionophore that dissipates the mitochondrial Δψm carbonyl cyanide 3-chlorophenylhydrazone (CCCP) at 50 μM, was used as a positive control. Cells treated with the diluent of the compounds (DMSO) and untreated were used as negative controls. Data collection and analysis was performed by using CXP software (Beckman Coulter). JC-1 is the most widely applied method for detecting mitochondrial depolarization occurring in the early stages of apoptosis."}, "[2]": {"tested_on": "L. major metacyclic promastigotes", "test": "Murine model for cutaneous leishmaniasis (footpad infection)", "format": "in vivo, BALB/c mice", "settings": "for footpad swelling: 10^5 L. major metacyclic promastigotes, intraperitoneal daily treatment", "experimental": "The in vivo experiments were comprised of four groups of five mice each: (1) infected, but not treated [control for the infection—100 μL of DMSO per day, drug diluent]; (2) treated with NC884, NC901 or NC2459, but not infected with the parasites [control for drug toxicity]; (3) infected with the parasites and treated with amphotericin B (8 mg/kg/day) [reference drug; positive control]; and (4) infected with the parasites and treated with NC884, NC901 or NC2459 [experimental group]. Luciferase expressing metacyclic promastigotes L. major (Freidlin V1) were obtained as described previously. Suspensions of 1×10^5 or 1×10^6 parasites per 50 μl of sterile DMEM (endotoxin-free) were injected with a 30G needle into the left hind footpad of BALB/c mice. Two weeks post-infection the compounds were administered once a day by intraperitoneal route, daily for 14 to 17 days. Twice a week, weights were recorded to monitor toxicity and the thickness of the infected footpad and the non-infected footpad was measured with digital calipers to monitor the progression of the disease. The parasitic load also was evaluated through in vivo imaging using luminescence (Kodak Image Station). The mice were injected intra-peritoneally with 150 mg/kg D-luciferin (Sigma, USA) 10 min before imaging, anesthetized with 1-2% isofluorane in oxygen during imaging and the net intensity emitted from the footpad was quantified using the KODAK Image Station software. Parasite burden was expressed as net intensity emitted from L. major infected footpad lesions normalized against the background fluorescence of uninfected mice. The presence/absence of parasites was confirmed by PCR using L. major methionine aminopeptidase (MetAP1) 1 specific primers: 5′-[…]-3′ (SEQ ID NO:1) and 5′-[…]-3′ (SEQ ID NO:2) on cDNA reverse transcribed from total RNA extracted from footpad lysate obtained by macerating footpad tissue fragments in Trizol (Invitrogen Life Technologies, United States) with the gentleMACS™ Dissociator (Miltenyi Biotec GmbH, Germany) following the manufacturer's protocol."}, "[3]": {"tested_on": "L. major intracellular amastigotes", "test": "High-content imaging infectivity assay, L. major amastigote-infected macrophages", "format": "cell-based, Leishmania major", "settings": "for most effective concentration against L. major intracellular amastigotes / IC50: 48 h treatment; for IC50: Leishmania major, Peritoneal macrophage, in Mus musculus, in BALB/c peritoneal macrophages; for percentage of infected macrophages vs 1% DMSO control: constraints 2, 5 and 8 or more amastigotes per macrophage; for effectiveness compared with positive control amphotericin B 5 μM: percentage of infected macrophages, NC901, NC884 at 5 μM", "experimental": "In vitro infectivity experiments were carried out to determine the activity of compounds NC901, NC884, and NC2459 against L. major intracellular amastigotes. Intraperitoneal macrophages isolated from BALB/c mice were infected with L. major metacyclic promastigotes. After the parasites were allowed to establish infection for 48 hours, the compounds were added and incubated for an additional 48 hours. The compounds anti-leishmanial activity was evaluated using the BD Pathway Bioimager™. In the analysis several constraints were used, such as 2, 5, and 8 or more amastigotes per macrophage.\n(§1) In vitro evaluation of the NC drug library on infectivity experiments by high-content imaging assay. Mice intraperitoneal macrophages and human osteoblasts were placed in a microplate and infected with the amastigote forms of L. major strain Friedlin clone V1 and T. cruzi Y strain respectably, followed by treatment with NC lead compounds (as shown in Table 1). Briefly, Image acquisition and analyses of the plates were carried out using the BD Pathway 855 high-resolution fluorescence bioimager system (BD Biosciences). Filter sets appropriate for the excitation and emission spectra of Draq5 were utilized. Images from […] (3×3 montage) were acquired per well with a 20× objective. To perform the host cell segmentation and counting of parasites, the BD AttoVision™ v1.6.2 Sub Object analysis was used. Draq5 creates a background, staining the host cell and parasite nucleus, but defining the cytoplasm as well, determining this way the amount of parasites within each mammalian cell. The host cell nucleus was excluded by size difference. Subsequently, the infection index was calculated based on the mean of these triplicate values by multiplying the percentage of infected cells and the constraints used in the HCIA assay that was of 2, 3, 5, and 8 parasites per cell."}, "[4]": {"tested_on": "T. cruzi intracellular amastigotes", "test": "High-content imaging infectivity assay, T. cruzi amastigote-infected human osteoblasts", "format": "cell-based, Trypanosoma cruzi", "settings": "for IC50: Trypanosoma cruzi, Osteoblast; for parasite burden / percentage of infected cells, T. cruzi infected mammalian cells: human osteoblasts, 48 h", "experimental": "Human osteoblasts were infected with T. cruzi trypomastigotes and were treated with each compound at multiple concentrations for 48 hours.\nas §1"}, "[5]": {"settings": "in human osteoblasts, 48 h treatment, read-out: T. cruzi Intracellular Amastigotes IC50"}},
  "note": "Read-outs that look alike come from different tables or passages of the source.",
  "data": [
    {"molecule": "CN(C)CC1CCC(CN(C)C)C1=O", "note": "(centres unmarked) [NC884]", "values": [
      {"measurement": "mitochondrial membrane potential (Δψm) vs 1% DMSO", "setting": "[1]", "value": "concentration dependent loss in Δψm"},
      {"measurement": "footpad swelling", "setting": "[2]", "value": "reduced the footpad swelling similar to that of the positive control"},
      {"measurement": "most effective concentration against L. major intracellular amastigotes", "setting": "[3]", "value": 5, "unit": "µM"},
      {"measurement": "IC50", "setting": "[3]", "value": "937 ± 130", "unit": "nM"},
      {"measurement": "percentage of infected macrophages vs 1% DMSO control", "setting": "[3]", "value": "significant decrease in the percentage of infected cells"},
      {"measurement": "effectiveness compared with positive control amphotericin B 5 μM", "setting": "[3]", "value": "not as effective as the positive control amphotericin B"},
      {"measurement": "IC50", "setting": "[4]; [5]", "value": "987 ± 110", "unit": "nM"},
      {"measurement": "parasite burden / percentage of infected cells, T. cruzi infected mammalian cells", "setting": "[4]; 3 or more amastigotes per cell", "value": "significantly reduced the parasite burden"}
    ]},
    {"molecule": "CN(C)CC1CCCC(CN(C)C)C1=O", "note": "(centres unmarked) [NC901]", "values": [
      {"measurement": "mitochondrial membrane potential (Δψm) vs 1% DMSO", "setting": "[1]", "value": "concentration dependent loss in Δψm"},
      {"measurement": "footpad swelling", "setting": "[2]", "value": "reduced the footpad swelling similar to that of the positive control"},
      {"measurement": "most effective concentration against L. major intracellular amastigotes", "setting": "[3]", "value": 5, "unit": "µM"},
      {"measurement": "IC50", "setting": "[3]", "value": "1870 ± 200", "unit": "nM"},
      {"measurement": "percentage of infected macrophages vs 1% DMSO control", "setting": "[3]", "value": "significant decrease in the percentage of infected cells"},
      {"measurement": "effectiveness compared with positive control amphotericin B 5 μM", "setting": "[3]", "value": "not as effective as the positive control amphotericin B"},
      {"measurement": "IC50", "setting": "[4]; [5]", "value": "301 ± 90", "unit": "nM"},
      {"measurement": "parasite burden / percentage of infected cells, T. cruzi infected mammalian cells", "setting": "[4]; 3 or more amastigotes per cell", "value": "significantly reduced the parasite burden"}
    ]},
    {"molecule": "O=C1/C(=C/c2ccccc2)CN(C(=O)C(=O)N2C/C(=C\\c3ccccc3)C(=O)/C(=C/c3ccccc3)C2)C/C1=C\\c1ccccc1", "note": "[NC2459]", "values": [
      {"measurement": "mitochondrial membrane potential (Δψm) vs 1% DMSO", "setting": "[1]", "value": "concentration dependent loss in Δψm"},
      {"measurement": "footpad swelling", "setting": "[2]", "value": "much lower amount of swelling than all groups"},
      {"measurement": "time until measurable lesions start developing", "setting": "[2]; 10^5 parasites", "value": "6-7 weeks post-infection"},
      {"measurement": "mice never developing a lesion", "setting": "[2]; 10^5 parasites, monitored up to twelve weeks post-infection", "value": "one out of the three mice never developed a lesion"},
      {"measurement": "lesion size at 33 days post-infection", "setting": "[2]; 10^6 parasites, 8 mg/kg/day extended treatment, p≦0.05", "value": "significantly smaller lesion than all other groups"},
      {"measurement": "PCR of L. major MetAP1 gene in footpad", "setting": "[2]; mouse displaying no lesion", "value": "no traces of L. major genomic DNA"},
      {"measurement": "most effective concentration against L. major intracellular amastigotes", "setting": "[3]", "value": 1.25, "unit": "µM"},
      {"measurement": "IC50", "setting": "[3]", "value": "625 ± 110", "unit": "nM"},
      {"measurement": "percentage of infected macrophages vs 1% DMSO control", "setting": "[3]", "value": "significant decrease in the percentage of infected cells"},
      {"measurement": "effectiveness compared with positive control amphotericin B 5 μM", "setting": "[3]", "value": "significantly more effective"},
      {"measurement": "IC50", "setting": "[4]; 48 hours, 3 or more amastigotes per cell, read-out: IC50, T. cruzi amastigote-infected human osteoblasts", "value": 227, "unit": "nM"},
      {"measurement": "IC50", "setting": "[4]; [5]", "value": "227 ± 40", "unit": "nM"},
      {"measurement": "parasite burden / percentage of infected cells, T. cruzi infected mammalian cells", "setting": "[4]; 3 or more amastigotes per cell", "value": "significantly reduced the parasite burden"}
    ]}
  ]
}
